Experimental data: patent US20070087978A1, “Method of Controlling Animal Pests” (priority 1999, published 2007)

Key:
white flies = assay: Control of white flies on poinsettia; format: in vivo
Text: It was compared to untreated plants or plants treated with the commercial insecticides Bifenthrin, Neem Oil or Acephate.

[1] = test system: two spotted spider mite, Tetranychus urticae; assay: Spider mite control on greenhouse-grown potted miniature roses; format: in vivo; details: rate 0.4 oz. per 10 gallons
Text: Mites are a serious pest of plants grown throughout the world. […] It was compared to untreated control plants or plants treated with the commercial miticide, Avermectin, (Avid) at 0.4 oz. Per 10 gallons. There were six replicate plants per treatment. Adult and nymph spider mites were counted on three areas of each plant (upper, middle, lower). The sum of these three measurements is presented.

Spider Mite = format: in vivo; details: 0.4 ounces per 10 gallons
Method: Another experiment was conducted on Marigolds in 6-inch pots. […] It was compared to untreated controls, the commercial miticide Avermectin (Avid, Merck) at 0.4 ounces per 10 gallons, and the commercial Neem-based insecticide Triact 90 at 10.0 mL per liter. There were 6 replications. Plant samples of 5 leaves were taken randomly from upper to lower plant areas.

[2] = test system: nematode Aphielenchoides frageria; assay: Nematode trial on Anemone vitfolia; format: in vivo; details: repeated measure ANOVA and Kruskal-Wallis ANOVA
Text: In another trial, no control of the nematode Aphielenchoides […] on Anemone vitfolia was found as to nematode count when measured by repeated measure analysis of variance (ANOVA) and non-[…] for either KT-19827 or Avermectin. […] The symptomatic leaf analysis was done at the end of the 12 week trial period, during which 6 sprays were applied at 2 week intervals. ANOVA was the analytical measurement methodology.

Erwinia Amylovora = assay: KT-19827 compared with an SAR on pear with Erwinia; format: in vivo
Text: Systemic Activator Resistance (SAR) materials affect the treated plant so it resists outbreaks of disease over longer periods of time. KT-19827 was compared with a leading commercial SAR called Bion or Actiguard (Acibenszolar-S-Methyl by Novaritis) against Erwinia Amylovora on pear trees, variety “Butirra”. The test was for the full growing season. Efficacy against Erwinia on the trees and fruit was 98% for […], 73.6% for Bion and zero on the untreated control pear trees. Standard label rates for each product were applied as a foliar spray in an equal manner.
The study was not designed to measure the comparative quantity of pears produced on the three plots.

[3] = test system: silverleaf whitefly, Bemista argentifolii; format: in vivo; details: 3 days after treatment, rate 2.5 oz/10 gal. water
Method: In another study, twenty poinsettia plants were planted into 6.0 inch containers and were grown in a greenhouse and arranged in a completely randomized design (CRD). […] Plants were sampled before (precount) and 3 days after treatment (DAT) by randomly harvesting 10 leaves from each plant and then counting the number of live and dead whitefly nymphs.
All data were analyzed in a completely randomized design using a two-way analysis of variance (ANOVA) for the number of live whitefly nymphs and percent mortality 3 days after treatment. Percent mortality was determined by dividing the number of dead whiteflies by the total number of whiteflies (alive and dead).

Erwinia (Fireblight) = details: in vivo
Text: A series of foliar sprays was applied before, during and after bloom and later in the season as needed. […] This unexpected, unusual multiple benefit indicates a phytotherapeutic defense wherein the copper molecule, it is believed, is rendered metabolizable by the plant, thereby enhancing its own defense characteristics. The molecule of copper is rendered systemic so that its action is accomplished, most importantly, inside the treated plants. Thus a continuity of protection and a reinvigorating effect on the plant are assured, which is evidenced by the quantity and unblemished quality of the fruit.
In a replicated study with controls, 10 foliar sprays were applied between March and August at times most useful to control the disease in the course of the season's adverse weather variables which encourage Erwinia. By the time of harvest, the normal state of distress of the trees' photosynthetic activity with standard copper bactericides such as copper oxychloride or the classic Bordeau mixture was missing. The consequences of this physiology were very evident at the time of harvest quantitatively and qualitatively.

Cc1c(COC(=O)[C@@H]2[C@H](/C=C(\Cl)C(F)(F)F)C2(C)C)cccc1-c1ccccc1 (racemic) [Befenthria, Bifenthrin] was tested, and the “Mean Number of White Flies” value (white flies; 6 Days After Treatment, rate 0.1) was 27.7 living whitefly immatures per leaf and the “Mean Number of White Flies” value (white flies; 10 Days After Treatment, rate 0.1) was 8.7 living whitefly immatures per leaf.
In the case of CC[C@H](C)[C@H]1O[C@]2(C=C[C@@H]1C)C[C@@H]1C[C@@H](C/C=C(\C)[C@@H](O[C@H]3C[C@H](OC)[C@@H](O[C@H]4C[C@H](OC)[C@@H](O)[C@H](C)O4)[C@H](C)O3)[C@@H](C)/C=C/C=C3\CO[C@@H]4[C@H](O)C(C)=C[C@@H](C(=O)O1)[C@]34O)O2 [Avermectin], the “Mean Number of White Flies” value (white flies; 6 Days After Treatment, rate 0.5) was 26.8 living whitefly immatures per leaf, the “Mean Number of White Flies” value (white flies; 10 Days After Treatment, rate 0.5) was 44.5 living whitefly immatures per leaf and the “Mean Number of Adult and Nymph Mites” value ([1]; 6 Days After Treatment, sum of upper, middle, lower plant areas) was 0b. The “Mean Number of Adult and Nymph Mites” value ([1]; 10 Days After Treatment) was 0.2b, the “Mean Number of Adult and Nymph Mites” value ([1]; 16 Days After Treatment) was 0.7b and the “mite population, Week 2” value (Spider Mite) was 6.2c. For the same compound, the “mite population, Week 3” value (Spider Mite) was 23.8c, the “mite population, Week 1” value (Spider Mite; samples of 5 leaves) was 0.0b and the “control as to nematode count” value [2] was “no control”.
In the case of CSC(=O)c1cccc2nnsc12 [Bion, Acibenszolar-S-Methyl], the “packets of harvested pears showing evidence of disease” value (Erwinia Amylovora; at harvest) was 17 out of 238 and the “Efficacy against Erwinia on the trees and fruit” value (Erwinia Amylovora; pear variety Butirra, full growing season, standard label rates, foliar spray) was 73.6%.
CCOP(=S)(OCC)Oc1nc(Cl)c(Cl)cc1Cl [Chlorpyrifos, chlorpyrifos] was tested, and the “Live Whitefly Nymphs (3 DAT)” value [3] was 143.0bc and the “% Mortality” value ([3]; dead / total whiteflies) was 34.0ab %.
“tannate complex of picro cupric ammonium formate [KT-19827]” was tested, and the “damage to tender tissue (blooms)” value (Erwinia (Fireblight)) was “without damage to tender blooms”.
